From publication PMC6328429, “Synthesis of a benzoxazinthione derivative of tanaproget and pharmacological evaluation for PET imaging of PR expression” (EJNMMI Radiopharmacy and Chemistry, 2019) come the findings set out here.

A short description of data set [1]: In vitro non-radioactive metabolite analysis and clearance in MLM. The data set is classed as in vitro ADME, mouse. On the procedure: Microsomal incubations were performed using a Hamilton Microlab Star liquid handling workstation (Hamilton Robotics, Bonaduz, Switzerland). Test compound 2 (final concentration 1 or 10 μM, 1% DMSO) was pre-incubated at 37 °C for 10 min in MLM or HLM (final concentration 1 mg/ml prepared in 10 mM PBS). Reactions were initiated by the addition of NADPH (final concentration 1 mM). Aliquots were removed from each incubation and quenched in 3 volumes of ice-cold MeOH containing internal standard olomoucine (500 nM in MeOH) at − 1, 0, 5, 15, 30 and 60 min. Incubations were conducted in singlicate. […] Terminated incubations were centrifuged at 3700 rpm at 4 °C for 30 min and supernatant taken for analysis. Microsomal incubations were analysed by liquid chromatography-tandem mass spectrometry (LC-MS/MS). This consisted of a Dionex Ultimate 3000 UHPLC system coupled to a ThermoScientific Q Exactive Plus orbitrap mass spectrometer (Thermo Fisher Scientific Inc., Waltham, USA). Chromatographic separation was achieved using an Acquity UPLC HSS T3 column (1.8 μm, 100 × 2.1 mm) (Waters, Elstree, UK) at 50 °C and a binary mobile phase gradient at a flow rate of 0.4 ml/min. Initial LC conditions comprised 10% formic acid (0.1%) in water (A), 90% methanol (B). This was ramped to […] at 12 min. Sample analysis was by positive ion electrospray ionization. The capillary voltage was 3.5 kV. Full MS/dd-MS^2 (full MS scan followed by data dependent MS/MS) and Full MS/AIF (full MS scan followed by all ion fragmentation) workflows were used in combination. Full MS was performed at a resolution of 70,000, AGC target 1 e^6; dd-MS2 at a resolution of 17,5000, AGC target 1 e^5. LC-MS response (peak area of the analyte/peak area of internal standard) was fitted to a nonlinear single exponential model using software GraphPad Prism software (v6.07, GraphPad Software, Inc., La Jolla, USA). Elimination rate constant (k) was determined and intrinsic clearance, CLint, was calculated as CLint = (V.k)/mg protein where V is the incubation volume (μl) and mg protein is the mg microsomal protein in the incubation. Identification of metabolites in microsomal incubations and elucidation of their structures was undertaken with Compound Discoverer software (v2.0.0.303, Thermo Fisher Scientific Inc., Waltham, USA).

For data set [2], the target named is T1, progesterone receptor (PR) (Homo sapiens, UniProt P06401).
T1 construct: endogenous in cells; host or cells: T47D breast carcinoma cells
T1 sequence (P06401 1-933): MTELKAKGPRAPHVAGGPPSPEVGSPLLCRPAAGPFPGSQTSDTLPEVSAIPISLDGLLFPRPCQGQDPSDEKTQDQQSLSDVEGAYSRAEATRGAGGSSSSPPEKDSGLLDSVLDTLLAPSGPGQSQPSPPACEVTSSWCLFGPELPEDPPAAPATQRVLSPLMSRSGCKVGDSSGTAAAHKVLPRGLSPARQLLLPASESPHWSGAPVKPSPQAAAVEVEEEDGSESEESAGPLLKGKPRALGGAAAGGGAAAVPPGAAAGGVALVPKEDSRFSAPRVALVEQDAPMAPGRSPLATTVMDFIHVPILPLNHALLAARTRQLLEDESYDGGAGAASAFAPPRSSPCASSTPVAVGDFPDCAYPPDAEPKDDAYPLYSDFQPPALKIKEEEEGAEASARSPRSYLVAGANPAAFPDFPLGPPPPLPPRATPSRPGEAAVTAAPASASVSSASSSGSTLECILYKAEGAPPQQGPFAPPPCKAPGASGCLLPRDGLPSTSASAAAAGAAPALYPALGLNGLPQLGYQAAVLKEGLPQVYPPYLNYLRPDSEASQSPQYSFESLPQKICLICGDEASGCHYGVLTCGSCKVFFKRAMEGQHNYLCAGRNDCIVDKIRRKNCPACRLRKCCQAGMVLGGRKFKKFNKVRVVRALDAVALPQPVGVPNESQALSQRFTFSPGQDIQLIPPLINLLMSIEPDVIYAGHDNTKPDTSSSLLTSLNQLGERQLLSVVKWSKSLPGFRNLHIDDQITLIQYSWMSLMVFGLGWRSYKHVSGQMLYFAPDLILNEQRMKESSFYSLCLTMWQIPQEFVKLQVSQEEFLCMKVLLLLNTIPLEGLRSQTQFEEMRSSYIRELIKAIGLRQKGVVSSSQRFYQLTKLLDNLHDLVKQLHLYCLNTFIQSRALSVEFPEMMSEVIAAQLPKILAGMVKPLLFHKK
Description: T47D alkaline phosphatase (AP) potency assay. The data set is classed as cell-based. On the procedure: The method described by Di Lorenzo et al was followed with minor adaptation (Di Lorenzo et al., [1991]). In brief, T47D breast carcinoma cells were seeded in 96-well plates at 50,000 cell/well in RPMI medium supplemented with 10% FBS. After overnight culture, the medium was changed to RPMI phenol red free containing 2% charcoal-stripped FBS. After 24 h, the cells were treated with progesterone (Sigma Aldrich, Gillingham, UK) or the library compounds. Progesterone and the test compounds were dissolved in DMSO (100%) and diluted into treatment medium to give a final DMSO (v/v) concentration of 0.1%. After incubation (48 h) the treatment was finalised by twice washing the plates with PBS. Cells were lysed by two freeze-thaw cycles (− 80 °C). Cellular alkaline phosphatase activity was determined by adding Femto ELISA-AP substrate (200 μL) and optical density measurements taken at 5 and 10 min intervals at a wavelength of 405 nm. Data was interpreted using Graphpad Prism (GraphPad, CA, USA) using the model: dose-response simulation/inhibition, log(agonist/inhibition) vs. response – variable slope (four parameters). For compounds where EC50 > 10,000, an antagonist profile was assumed and the experiment was repeated with the inclusion of progesterone (3 mM) with the library compound. Data shown in the supporting information (Additional file 1: Figure S32).

With `CC1(C)OC(=S)Nc2ccc(-c3cccnc3F)cc21` [Compound 2, 6-(2-fluoropyridin-3-yl)-4,4-dimethyl-1H-benzo[d][1,3]oxazine-2(4H)-thione], the “Metabolite identification by mass spectrometry in MLM” value in data set [1] (MLM incubation, LC-MS/MS) is “conversion of the thiocarbamate into oxocarbamate as the major metabolic pathway and highlighted oxidative defluorination”. For the same compound, the microsomal CLint in data set [1] (mouse, mouse liver microsomes, MLM 1 mg/ml, NADPH 1 mM, 37 °C) was 1270 µL/min/mg. The compound further yielded an EC50 in data set [2] (agonist response, 48 h incubation, average of at least n = 3 ± SD) of 4.7 ± 0.07 nM. The “fold more potent than structural isomer 4” value in data set [2] (compound 2 versus 4) is on record as about 1000 fold.
